Data from article PMC11047580, “Design and Synthesis of Novel Amino and Acetamidoaurones with Antimicrobial Activities” (Antibiotics, 2024).
≈ marks a conversion by molar mass, not a printed value.

Assays:
B. subtilis ATCC6633 = assay: MIC assay; format: cell-based, Bacillus subtilis; conditions: Bacillus subtilis, ATCC6633; two-fold serial dilutions in liquid media; n = 2–3
M. smegmatis ATCC700084 = assay: MIC assay (REMA); format: cell-based, Mycobacterium smegmatis; conditions: Mycolicibacterium smegmatis, ATCC700084, REMA microdilution, n = 2–3
C. albicans DSM10697 = assay: MIC assay; format: cell-based, Candida albicans; conditions: Candida albicans, DSM10697; two-fold serial dilutions in liquid media; n = 2–3
P. aeruginosa ATCC9027 = assay: MIC assay; format: cell-based, Pseudomonas aeruginosa; conditions: Pseudomonas aeruginosa, ATCC9027; two-fold serial dilutions in liquid media; n = 2–3
S. aureus ATCC6538P = assay: MIC assay; format: cell-based, Staphylococcus aureus; conditions: Staphylococcus aureus, ATCC6538P; two-fold serial dilutions in liquid media; n = 2–3
E. coli ATCC8739 = assay: MIC assay; format: cell-based, Escherichia coli; conditions: Escherichia coli, ATCC8739; two-fold serial dilutions in liquid media; n = 2–3

## Nc1ccc2c(c1)C(=O)/C(=C/c1cccc(F)c1)O2 [Compound 27, (Z)-5-amino-2-(3-fluorobenzylidene)benzofuran-3(2H)-one]
B. subtilis ATCC6633
  MIC: > 100 µM
M. smegmatis ATCC700084
  MIC: > 100 µM
C. albicans DSM10697
  MIC: > 100 µM
P. aeruginosa ATCC9027
  MIC: > 100 µM
S. aureus ATCC6538P
  MIC: > 100 µM
E. coli ATCC8739
  MIC: > 100 µM

## Nc1ccc2c(c1)C(=O)/C(=C/c1ccc(OCc3ccccc3)cc1)O2 [Compound 13, (Z)-5-amino-2-(4-(benzyloxy)benzylidene)benzofuran-3(2H)-one]
B. subtilis ATCC6633
  MIC: 100 µM (≈ 34.3 µg/mL)
M. smegmatis ATCC700084
  MIC: > 100 µM
C. albicans DSM10697
  MIC: > 100 µM
P. aeruginosa ATCC9027
  MIC: > 100 µM
S. aureus ATCC6538P
  MIC: > 100 µM
E. coli ATCC8739
  MIC: > 100 µM
other
  melting point: 141.6 °C

## Nc1ccc2c(c1)C(=O)/C(=C/c1cccc(C(F)(F)F)c1)O2 [Compound 30, (Z)-5-amino-2-(3-(trifluoromethyl)benzylidene)benzofuran-3(2H)-one]
B. subtilis ATCC6633
  MIC: > 100 µM
M. smegmatis ATCC700084
  MIC: > 100 µM
C. albicans DSM10697
  MIC: > 100 µM
P. aeruginosa ATCC9027
  MIC: > 100 µM
S. aureus ATCC6538P
  MIC: > 100 µM
E. coli ATCC8739
  MIC: > 100 µM
other
  melting point: > 350 °C

## Nc1ccc2c(c1)C(=O)/C(=C/c1ccc(Oc3ccccc3)cc1)O2 [Compound 17, (Z)-5-amino-2-(4-phenoxybenzylidene)benzofuran-3(2H)-one]
B. subtilis ATCC6633
  MIC: > 100 µM
M. smegmatis ATCC700084
  MIC: > 100 µM
C. albicans DSM10697
  MIC: > 100 µM
P. aeruginosa ATCC9027
  MIC: > 100 µM
S. aureus ATCC6538P
  MIC: > 100 µM
E. coli ATCC8739
  MIC: > 100 µM
other
  melting point: 170.6 °C

## CC(=O)Nc1ccc2c(c1)C(=O)/C(=C/c1ccc(OCc3ccccc3)cc1)O2 [Compound 11, (Z)-N-(2-(4-(benzyloxy)benzylidene)-3-oxo-2,3-dihydrobenzofuran-5-yl)acetamide]
B. subtilis ATCC6633
  MIC: > 100 µM
M. smegmatis ATCC700084
  MIC: > 100 µM
C. albicans DSM10697
  MIC: > 100 µM
P. aeruginosa ATCC9027
  MIC: > 100 µM
S. aureus ATCC6538P
  MIC: > 100 µM
E. coli ATCC8739
  MIC: > 100 µM
other
  melting point: 212.8 °C

## Nc1ccc2c(c1)C(=O)/C(=C/c1ccc(F)cc1)O2 [Compound 28, (Z)-5-amino-2-(4-fluorobenzylidene)benzofuran-3(2H)-one]
B. subtilis ATCC6633
  MIC: > 100 µM
M. smegmatis ATCC700084
  MIC: > 100 µM
C. albicans DSM10697
  MIC: > 100 µM
P. aeruginosa ATCC9027
  MIC: > 100 µM
S. aureus ATCC6538P
  MIC: > 100 µM
E. coli ATCC8739
  MIC: > 100 µM
other
  melting point: 164.4 °C

## COc1ccccc1/C=C1\Oc2ccc(N)cc2C1=O [Compound 7, (Z)-5-amino-2-(2-methoxybenzylidene)benzofuran-3(2H)-one]
B. subtilis ATCC6633
  MIC: > 100 µM
M. smegmatis ATCC700084
  MIC: > 100 µM
C. albicans DSM10697
  MIC: > 100 µM
P. aeruginosa ATCC9027
  MIC: > 100 µM
S. aureus ATCC6538P
  MIC: > 100 µM
E. coli ATCC8739
  MIC: > 100 µM
other
  melting point: 189.3 °C

## C[C@@H]1[C@H](O)[C@@H](C)/C=C/C=C/C=C/C=C/C=C/C=C/C=C/[C@H](O[C@@H]2O[C@H](C)[C@@H](O)[C@H](N)[C@@H]2O)C[C@@H]2O[C@](O)(C[C@@H](O)C[C@@H](O)[C@H](O)CC[C@@H](O)C[C@@H](O)CC(=O)O[C@H]1C)C[C@H](O)[C@H]2C(=O)O [Amphotericin B, reference compound]
C. albicans DSM10697
  MIC: 0.62 µM (≈ 0.573 µg/mL)

## CC(=O)Nc1ccc2c(c1)C(=O)/C(=C/c1cccc(F)c1)O2 [Compound 25, (Z)-N-(2-(3-fluorobenzylidene)-3-oxo-2,3-dihydrobenzofuran-5-yl)acetamide]
B. subtilis ATCC6633
  MIC: 50 µM (≈ 14.9 µg/mL)
M. smegmatis ATCC700084
  MIC: 100 µM (≈ 29.7 µg/mL)
C. albicans DSM10697
  MIC: > 100 µM
P. aeruginosa ATCC9027
  MIC: > 100 µM
S. aureus ATCC6538P
  MIC: > 100 µM
E. coli ATCC8739
  MIC: > 100 µM
other
  melting point: 243.6 °C

## CC(=O)Nc1ccc2c(c1)C(=O)/C(=C/c1ccccc1F)O2 [Compound 24, (Z)-N-(2-(2-fluorobenzylidene)-3-oxo-2,3-dihydrobenzofuran-5-yl)acetamide]
B. subtilis ATCC6633
  MIC: > 100 µM
M. smegmatis ATCC700084
  MIC: > 100 µM
C. albicans DSM10697
  MIC: > 100 µM
P. aeruginosa ATCC9027
  MIC: > 100 µM
S. aureus ATCC6538P
  MIC: > 100 µM
E. coli ATCC8739
  MIC: > 100 µM
other
  melting point: 226 °C

## CC(=O)Nc1ccc2c(c1)C(=O)/C(=C/c1ccc(C(=O)O)cc1)O2 [Compound 31, (Z)-4-((5-acetamido-3-oxobenzofuran-2(3H)-ylidene)methyl)benzoic acid]
B. subtilis ATCC6633
  MIC: 50 µM (≈ 16.2 µg/mL)
M. smegmatis ATCC700084
  MIC: 100 µM (≈ 32.3 µg/mL)
C. albicans DSM10697
  MIC: > 100 µM
P. aeruginosa ATCC9027
  MIC: > 100 µM
S. aureus ATCC6538P
  MIC: 100 µM (≈ 32.3 µg/mL)
E. coli ATCC8739
  MIC: > 100 µM

## Nc1ccc2c(c1)C(=O)/C(=C/c1ccccc1F)O2 [Compound 26, (Z)-5-amino-2-(2-fluorobenzylidene)benzofuran-3(2H)-one]
B. subtilis ATCC6633
  MIC: 50 µM (≈ 12.8 µg/mL)
M. smegmatis ATCC700084
  MIC: > 100 µM
C. albicans DSM10697
  MIC: > 100 µM
P. aeruginosa ATCC9027
  MIC: > 100 µM
S. aureus ATCC6538P
  MIC: > 100 µM
E. coli ATCC8739
  MIC: > 100 µM
